CNC(=O)c1cc(Oc2ccc(NC(=O)Nc3ccc(Cl)c(C(F)(F)F)c3)cc2)ccn1
solubility (mole fraction)
Details	273.15 K	278.15 K	283.15 K	288.15 K	293.15 K	298.15 K	303.15 K	308.15 K	313.15 K
in 2-butanone	0.00666	0.00725	0.0079	0.00856	0.00929	0.0101	0.0111	0.0122	0.0133
in acetone	0.00227	0.00259	0.00293	0.00329	0.00369	0.00405	0.00448	0.00488	0.00558
in acetonitrile	0.000162	0.000194	0.000239	0.000282	0.000334	0.000396	0.000476	0.000571	0.000678
in cyclohexanone	0.0114	0.0124	0.0138	0.0153	0.0169	0.0189	0.0209	0.0229	0.0251
in ethanol	0.000645	0.000727	0.000817	0.000922	0.00103	0.00114	0.00127	0.0014	0.00155
in ethyl acetate	0.000835	0.001	0.00119	0.00142	0.00165	0.00192	0.00222	0.00255	0.00293
in isobutanol	0.000433	0.000498	0.00058	0.000661	0.000755	0.000854	0.000972	0.0011	0.00126
in isopropanol	0.000498	0.000573	0.000665	0.000761	0.000866	0.000975	0.0011	0.00123	0.00138
in methanol	0.000385	0.000422	0.000459	0.000509	0.000564	0.000628	0.000701	0.000769	0.000848
in n-butanol	0.000726	0.000817	0.000919	0.00103	0.00116	0.0013	0.00145	0.00162	0.00182
in n-propanol	0.000756	0.00086	0.000978	0.00111	0.00126	0.00143	0.00162	0.00183	0.00207
in toluene	0.00197	0.00218	0.00234	0.00255	0.00282	0.00313	0.00352	0.00382	0.00428
